Experimental data: patent US8415339B2, “Bactericidal anti-MRSA active pharmaceutical composition containing carbapenems” (priority 2007, dated 2013)
“And” between values parts separate entries of the source, which are not always exact repeats. Identical values can stand only once.

Key:
[1] = system: MRSA 7268/02; experiment: Agar diffusion (plate/disk) test, inhibition zone; assay type: cell-based, Staph. aureus; conditions: 20 hrs at 37° C.; for zone of inhibition at 10 µg/disc: Staphylococcus aureus, MRSA, 20 h, read-out: Diameter of inhibition zone
Procedure: (§1) Inhibition zone diameters were determined on Difco Nutrient Agar (10 ml) in sterile dishes (8.5 cm) using ca. 10^6-10^7 colony forming units. 0.2 ml of a bacterial suspension (overnight culture in Difco Nutrient Broth) was mixed at 52° C. with the sterile liquid agar. It solidified at room temperature. Sterile filter disks (6 mm) were placed on the agar surface. Appropriate volumes of a 0.2% aqueous solutions of antibiotics were transferred to the disks by a precision syringe. Alternatively, commercial impregnated disks (Oxoid) were used.
(§2) The inhibition zone diameter was measured after 20 hrs at 37° C. For determination of bactericidal activity, incubation at 37° C. was continued for additional 40 hrs. A clear inhibition zone after additional incubation indicated bactericidity (B).

[2] = system: Staph. Innsbruck; experiment: Agar diffusion (plate/disk) test, inhibition zone; assay type: cell-based, Staph. aureus; conditions: 20 hrs at 37° C.; for zone of inhibition at 10 µg/disc: Staphylococcus aureus, 20 h, read-out: Diameter of inhibition zone
Procedure: as §1, §2

[3] = system: MRSA 7268/02; experiment: Minimal inhibitory concentration, agar dilution; assay type: cell-based, Staph. aureus; conditions: Difco Nutrient Agar, 20 hrs at 37° C., combinations as a + b; for MIC: Staphylococcus aureus, MRSA
Procedure: (§3) Minimal inhibitory concentrations were determined using Difco Nutrient Agar. Appropriate volumes of 0.1% aqueous solutions of antibiotics were added into sterile dishes (8.5 cm) in twofold dilutions and mixed with 10 ml of sterile liquid agar of 50° C. The solid agar was inoculated with 3 μl of an 0.5 McFarland bacterial solution in Difco Nutrient Broth, corresponding to approx. 10^5 colony forming units. Bacterial growth was recorded after 20 hrs of incubation at 37° C.

[4] = system: Staph. Innsbruck; experiment: Minimal inhibitory concentration, agar dilution; assay type: cell-based, Staph. aureus; conditions: Difco Nutrient Agar, 20 hrs at 37° C., combinations as a + b; for MIC: Staphylococcus aureus
Procedure: as §3

[5] = system: MRSA 7268/02; experiment: Time dependent counting of colony forming units (cfu); assay type: cell-based, Staph. aureus
[6] = system: MRSA München 12797; experiment: Mouse septicaemia test; assay type: in vivo; conditions: s. c., at 1 hr and 4 hr after i.v. infection, observed 10 days
Procedure: In vivo activity was determined by a mouse septicaemia test using immunocompetent animals of 30 g weight (6 animals per group). Infection was performed with MRSA München 12797 at a concentration of approx. 2×10^9 cfu/mouse by the i.v. route (lethal dose). Therapy was performed at daily doses from 5+5 to 75+75 mg/kg by s. c. route (equivalent amounts at time 1 hr and 4 hr after infection).

[7] = single antibiotic 30 μg per disk
[8] = carbapenem alone 10 μg per disk

Compound	Diameter of inhibition zone [1, 7]	Diameter of inhibition zone [2, 7]	other results
CC1(C)S[C@@H]2[C@H](NC(=O)[C@H](N)c3ccc(O)cc3)C(=O)N2[C@H]1C(=O)O [Amoxicillin]	0 mm	10 mm	MIC [3]: 32 µg/mL; MIC [4]: 64 µg/mL
CC1(C)S[C@@H]2[C@H](NC(=O)[C@H](N)c3ccccc3)C(=O)N2[C@H]1C(=O)O [Ampicillin]	12 mm	12 mm	–
CC1(C)S[C@@H]2[C@H](NC(=O)C(C(=O)O)c3ccccc3)C(=O)N2[C@H]1C(=O)O (stereo partly shown) [Carbenicillin]	0 mm	–	–
N[C@@H](C(=O)N[C@@H]1C(=O)N2C(C(=O)O)=C(Cl)CS[C@H]12)c1ccccc1 [Cefaclor]	11 mm	–	–
Cc1nnc(SCC2=C(C(=O)O)N3C(=O)[C@@H](NC(=O)Cn4cnnn4)[C@H]3SC2)s1 [Cefazolin]	0 mm	0 mm	–
C=CC1=C(C(=O)O)N2C(=O)[C@@H](NC(=O)/C(=N\O)c3csc(N)n3)[C@H]2SC1 [Cefdinir]	0 mm	–	–
C=CC1=C(C(=O)O)N2C(=O)[C@@H](NC(=O)/C(=N\OCC(=O)O)c3csc(N)n3)[C@H]2SC1 [Cefixim]	–	0 mm	–
CCN1CCN(C(=O)N[C@@H](C(=O)N[C@@H]2C(=O)N3C(C(=O)O)=C(CSc4nnnn4C)CS[C@H]23)c2ccc(O)cc2)C(=O)C1=O [Cefoperazone]	9 mm	–	–
CO/N=C(\C(=O)N[C@@H]1C(=O)N2C(C(=O)O)=C(COC(C)=O)CS[C@H]12)c1csc(N)n1 [Cefotaxime]	0 mm	0 mm	–
CN(C)CCn1nnnc1SCC1=C(C(=O)O)N2C(=O)[C@@H](NC(=O)Cc3csc(N)n3)[C@H]2SC1 [Cefotiam]	–	0 mm	–
CO[C@@]1(NC(=O)Cc2cccs2)C(=O)N2C(C(=O)O)=C(COC(N)=O)CS[C@@H]21 [Cefoxitin]	0 mm	11 mm	MIC [4]: 32 µg/mL
NC(=O)c1cc[n+](CC2=C(C(=O)[O-])N3C(=O)[C@@H](NC(=O)[C@@H](c4ccccc4)S(=O)(=O)O)[C@H]3SC2)cc1 [Cefsudolin]	0 mm	0 mm	–
CO/N=C(\C(=O)N[C@@H]1C(=O)N2C(C(=O)O)=C(CSc3nc(=O)c(=O)[nH]n3C)CS[C@H]12)c1csc(N)n1 [Ceftriaxon]	0 mm	0 mm	–
CO/N=C(\C(=O)N[C@@H]1C(=O)N2C(C(=O)O)=C(COC(N)=O)CS[C@H]12)c1ccco1 [Cefuroxim]	0 mm	–	–
CC(=O)OCC1=C(C(=O)O)N2C(=O)[C@@H](NC(=O)Cc3cccs3)[C@H]2SC1 [Cephalothin]	0 mm	–	–
Cc1onc(-c2ccccc2Cl)c1C(=O)N[C@@H]1C(=O)N2[C@@H]1SC(C)(C)[C@@H]2C(=O)O [Cloxacillin]	0 mm	0 mm	–
Cc1onc(-c2c(Cl)cccc2Cl)c1C(=O)N[C@@H]1C(=O)N2[C@@H]1SC(C)(C)[C@@H]2C(=O)O [Dicloxacillin]	0 mm	0 mm	–
CC1(C)S[C@@H]2[C@H](NC(=O)[C@H](N)C3=CCC=CC3)C(=O)N2[C@H]1C(=O)O [Epicillin]	14 mm and 12 mm	10 mm and 14 mm and 12 mm	Minimal Inhibitory concentration [3]: 32 µg/mL; Minimal Inhibitory concentration [4]: 32 µg/mL; Reduction of cfu's, substance used alone [5]: Neither epicillin, nor linezolide showed any significant reduction of cfu's
C[C@@H](O)[C@H]1C(=O)N2C(C(=O)O)=C(S[C@@H]3CN[C@H](C(=O)Nc4cccc(C(=O)O)c4)C3)[C@H](C)[C@H]12 [Ertapenem]	–	–	zone of inhibition at 10 µg/disc [1, 8]: 0 mm; zone of inhibition at 10 µg/disc [2, 8]: 0 mm
COCSC1=C(C(=O)[O-])N2C(=O)[C@H]([C@@H](C)O)[C@H]2[C@H]1C.[K+] [GH 478, Potassium (1R,5S,6S)-6-[(R)-1-hydroxyethyl]-2-methoxymethylthio-1-methylcarbapen-2-em-3-carboxylate]	–	–	Diameter of inhibition zone [2, 8]: 0 mm
CC(=O)NCSC1=C(C(=O)[O-])N2C(=O)[C@H]([C@@H](C)O)[C@H]2[C@H]1C.[K+] [GH 519, Potassium (1R,5S,6S)-2-[(N-acetylamino)methylthio]-6-[(R)-1-hydroxyethyl]-1-methyl-carbapenen-2-em-3-carboxylate]	–	–	Diameter of inhibition zone [1, 8]: 0 mm; Diameter of inhibition zone [2, 8]: 0 mm
C[C@@H](O)[C@H]1C(=O)N2C(C(=O)O)=C(SCOCCN)[C@H](C)[C@H]12 [GH 570, (1R,5S,6S)-2-[(2-Aminoethyl)oxy]metlhylthio-6-[(R)-1-hydroxyethyl]-1-methylcarbapen-2-em-3-carboxylic acid]	–	–	Diameter of inhibition zone [1, 8]: 0 mm; Diameter of inhibition zone [2, 8]: 0 mm
C[C@@H](O)[C@H]1C(=O)N2C(C(=O)O)=C(SCCN=CN)C[C@H]12 [Imipenem]	–	–	zone of inhibition at 10 µg/disc [1, 8]: 8 mm; zone of inhibition at 10 µg/disc [2, 8]: 8 mm
C[C@@H](O)[C@H]1C(=O)N2C(C(=O)O)=C(S[C@@H]3CN[C@H](C(=O)N(C)C)C3)[C@H](C)[C@H]12 [Meropenem]	–	–	zone of inhibition at 10 µg/disc [1, 8]: 13 mm; zone of inhibition at 10 µg/disc [2, 8]: 14 mm; MIC [3]: 16 µg/mL; MIC [4]: 32 µg/mL; Bactericidal effect compared with epicillin/meropenem 2+2 μg/ml ([5]; 4 μg/ml alone): less bactericidal than the epicillin/meropenem composition at 2+2 μg/ml; ED90 [6]: > 75+75 mg/kg
COc1cccc(OC)c1C(=O)N[C@@H]1C(=O)N2[C@@H]1SC(C)(C)[C@@H]2C(=O)O [Methicillin]	–	0 mm	–
CO[C@@]1(NC(=O)C(C(=O)O)c2ccc(O)cc2)C(=O)N2C(C(=O)O)=C(CSc3nnnn3C)CO[C@@H]21 (stereo partly shown) [Moxalactam]	–	8 mm	–
Cc1onc(-c2ccccc2)c1C(=O)N[C@@H]1C(=O)N2[C@@H]1SC(C)(C)[C@@H]2C(=O)O [Oxacillin]	0 mm	0 mm	–
CCN1CCN(C(=O)N[C@@H](C(=O)N[C@@H]2C(=O)N3[C@@H]2SC(C)(C)[C@@H]3C(=O)O)c2ccccc2)C(=O)C1=O [Piperacillin]	0 mm	0 mm	–
CN[C@H](CC(C)C)C(=O)N[C@H]1C(=O)N[C@@H](CC(N)=O)C(=O)N[C@H]2C(=O)N[C@H]3C(=O)N[C@H](C(=O)N[C@H](C(=O)O)c4cc(O)cc(O)c4-c4cc3ccc4O)[C@H](O)c3ccc(c(Cl)c3)Oc3cc2cc(c3O[C@@H]2O[C@H](CO)[C@@H](O)[C@H](O)[C@H]2O[C@H]2C[C@](C)(N)[C@H](O)[C@H](C)O2)Oc2ccc(cc2Cl)[C@H]1O [Vancomycin]	19 mm	20 mm	–
CC(=O)NC[C@H]1CN(c2ccc(N3CCOCC3)c(F)c2)C(=O)O1 [linezolide]	–	–	Reduction of cfu's, substance used alone [5]: Neither epicillin, nor linezolide showed any significant reduction of cfu's
